Here are results for one compound from patent publication US20060234997A1, “Tetrahydro-pyridoazepin-8-ones and related compounds for the treatment of schizophrenia” (WARNER-LAMBERT COMPANY LLC, priority 2005, published 2006).

A word on the Ki: it is the dissociation constant of the complex between target and ligand, obtained from inhibition or displacement. A high value points to weaker binding.

Marks after values point to notes of the source that are not given here.

Test [1] has as its target T1, Dopamine D2 receptor (hD2L) (Homo sapiens, UniProt P14416).
T1 construct: expressed in transfected cells; host or cells: CHO cells (CHO-hD2L)
Description: Dopamine D2 Receptor Binding Assay ([3H]spiperone, CHO-hD2L membranes). To be noted: [3H]spiperone 0.4 nM, membrane preparation from CHO-hD2L cells. The text has this: The ability of the novel compounds of this invention to bind to the dopamine D2 receptor can be determined using conventional radioligand receptor binding assays. All receptors can be heterologously expressed in cell lines and binding assays can be conducted in membrane preparations from the cell lines using procedures outlined below. IC50 concentrations can be determined by nonlinear regression of concentration-dependent reduction in specific binding. The Cheng-Prussoff equation can be used to convert the IC50 to Ki concentrations.
[^3H]Spiperone binding to a membrane preparation from CHO-hD2L cells was carried out in 250 μl of 50 mM Tris-HCl buffer containing 100 mM NaCl, 1 mM MgCl2 and 1% DMSO at pH 7.4. Duplicate samples containing (in order of addition) the test compounds, 0.4 nM [^3H]spiperone and approximately 12 μg protein were incubated for 120 minutes at room temperature. Bound radioligand was separated by rapid filtration under reduced pressure through Whatman GF/B glass fiber filters previously treated with 0.3% polyethyleneimine. Radioactivity retained on the filter is determined by liquid scintillation spectrophotometry.

Test [2] has as its system spontaneous locomotor activity in rats. Description: Spontaneous Locomotor Activity Inhibition Test. In kind it is in vivo, rat. To be noted: 60 min after dosing, recorded 1 hour, mean ± SEM. The text has this:
Potential therapeutic effects of 2-{4-[4-(7-Fluoro-naphthalen-1-yl)-piperazin-1-yl]-butoxy}-5,6,7,9-tetrahydro-1,7,9-triaza-benzocyclohepten-8-one (hereinafter the “test compound”) were investigated in a spontaneous locomotor activity inhibition test in rats, a behavioral test predictive of antipsychotic activity. (A. E. Corbin, et. al.: PD 158771, a potential antipsychotic agent with D2/D3 partial agonist and 5-HT1A agonist actions. II. Prelinical behavioral effects. Neuropharmacology 39: 1211-1221 (2000)) The testing was performed using 16-Beam Digiscan Animal Activity Monitors (Accuscan Electronics, Columbus, Ohio). Each test chamber consisted of a PLEXIGLAS® box measuring 16×16 inches. These boxes were housed inside stainless steel, ventilated sound-attenuating chambers (SACs). Lights inside the SACs were off. Male Sprague-Dawley rats (Harlan), weighing 180 to 200 g at the time of testing, were used. Rats were provided with food and water ad libitum, but were food deprived for 24 hours before testing. Rats were randomly assigned to vehicle or drug treatment groups, and were tested one per chamber. On the test day, rats were removed from the housing room and brought to the test room, where they were placed into PLEXIGLAS® isolator cages on corncob bedding, 4 rats per cage. Rats were dosed orally (PO) with the test compound or vehicle, and then returned to the isolators. After a 60-minute absorption period, each rat was placed into the test chamber, the chamber door closed, and recording of locomotor activity begun. Locomotor activity was recorded for 1 hour, in 5-minute blocks. The test compound was suspended in 1% cremophor EL, 1% HCl 1N, and 0.5% methocel in water. The test compound or the vehicle was administered in a volume of 5 mL/kg. Doses are expressed as the active moiety (ie, base). Locomotor activity was measured as centimeters traveled and expressed as percent inhibition from vehicle control. Statistical analysis was performed using a one-way ANOVA followed by a post hoc Dunnett's test. Data from the vehicle-treated control groups from each experiment were compared using a one-way ANOVA.

T1 sequence (P14416 whole entry): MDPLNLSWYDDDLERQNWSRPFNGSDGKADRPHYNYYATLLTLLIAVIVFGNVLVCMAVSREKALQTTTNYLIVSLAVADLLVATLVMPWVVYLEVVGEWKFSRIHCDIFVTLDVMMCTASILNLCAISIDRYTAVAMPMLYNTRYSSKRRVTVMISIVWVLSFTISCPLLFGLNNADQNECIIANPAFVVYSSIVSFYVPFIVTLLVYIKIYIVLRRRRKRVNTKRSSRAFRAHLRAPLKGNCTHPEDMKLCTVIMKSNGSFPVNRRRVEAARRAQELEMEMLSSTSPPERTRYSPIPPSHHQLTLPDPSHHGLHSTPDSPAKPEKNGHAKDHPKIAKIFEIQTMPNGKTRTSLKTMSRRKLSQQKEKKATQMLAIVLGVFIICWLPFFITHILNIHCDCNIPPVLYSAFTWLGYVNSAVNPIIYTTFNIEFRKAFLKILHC

`O=C1NCCc2ccc(OCCCCN3CCN(c4cccc5ccc(F)cc45)CC3)nc2N1` [Example 18, 2-{4-[4-(7-Fluoro-naphthalen-1-yl)-piperazin-1-yl]-butoxy}-5,6,7,9-tetrahydro-1,7,9-triaza-benzocyclohepten-8-one] came in with an inhibitory constant (Ki) in test [1] of 1.79 nM. The “Percent Decrease from Control (locomotor activity)” value in test [2] (0.1 mg/kg PO) was 9.0 ± 37.9^c; in test [2] (0.3 mg/kg PO), 38.3 ± 47.2^bd; in test [2] (1 mg/kg PO) it was 53.7 ± 4.8^bd; in test [2] (3 mg/kg PO) it was 75.4 ± 3.5^cd.
